The values that follow come from PubChem BioAssay (NCI).

Where “and” joins values, the source holds several entries; their conditions need not be identical. Equal entries are not always repeated.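 In this assay, cells in 96-well plates receive the compound at five concentrations for 48 hours. Endpoints are linearly interpolated between the surrounding concentrations. Abbreviation: GI50, concentration required for 50% inhibition of growth. Definition used: TGI = concentration required for complete inhibition of growth.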

Some test systems named below: SF-268 CNS; 786-0 renal; LOX IMVI melanoma; DMS 114 small cell lung; K-562 leukemia; IGROV1 ovarian; NCI-H460 lung; HS 578T breast; DU-145 prostate.
Assay in all cases: inhibition of tumour cell growth, NCI panel, 48 h

For `COc1cc(C(=O)C/C(CCC(=O)Nc2ccc(Cl)cc2Cl)=N/NC(=O)C(=O)NN)ccc1O`, the TGI in the test on SF-268 CNS, in the test with 786-0 renal, with LOX IMVI melanoma, in the test with DMS 114 small cell lung, in the test on K-562 leukemia and in the test with IGROV1 ovarian was above 100 µM each time. The molecule further registered a TGI in the test with NCI-H460 lung above 100 µM.

Take `O/C(=C\c1nc2ccccc2nc1NC12CC3CC(CC(C3)C1)C2)c1ccc(Br)cc1`: the TGI with SF-268 CNS, in the test with 786-0 renal, with LOX IMVI melanoma, in the test on HS 578T breast, in the test on K-562 leukemia and in the test on DU-145 prostate was above 10 µM in each case. In addition, the TGI with IGROV1 ovarian and in the test on NCI-H460 lung was above 10 µM in each case.

On to `Cn1c(=O)c2c(ncn2CC(=O)Nc2ccc(-c3ccccc3)nn2)n(C)c1=O`, for which the GI50 with SF-268 CNS, in the test on 786-0 renal, in the test with LOX IMVI melanoma, with HS 578T breast, in the test on K-562 leukemia and in the test on DU-145 prostate was above 100 µM each time. The GI50 in the test on IGROV1 ovarian and in the test with NCI-H460 lung was above 100 µM throughout. Besides, the TGI in the test on SF-268 CNS, with 786-0 renal, in the test with LOX IMVI melanoma, in the test on HS 578T breast, with K-562 leukemia and in the test with DU-145 prostate was above 100 µM in each case. Moreover, the TGI in the test on IGROV1 ovarian and in the test with NCI-H460 lung was above 100 µM each time.

Regarding `CC(O)CC(O)(C(F)(F)F)C(F)(F)F` (stereo unspecified), the TGI in the test with SF-268 CNS, with 786-0 renal, with LOX IMVI melanoma, with HS 578T breast, with K-562 leukemia and in the test with DU-145 prostate was above 10 µM in each case. The TGI in the test with IGROV1 ovarian and with NCI-H460 lung was above 10 µM in each case.

As for `CCCCCCCCCCN1CCC(N2CCCCC2)CC1`, the GI50 is 4.1 µM in the test with SF-268 CNS; 2.82 µM in the test on 786-0 renal; 1.23 µM in the test on LOX IMVI melanoma; 2.06 µM in the test with HS 578T breast; 1.28 µM in the test with K-562 leukemia; 9.64 µM with DU-145 prostate. Also, the figures for the GI50 in the test on IGROV1 ovarian and in the test with NCI-H460 lung were 1.66 µM and 2.99 µM, respectively. Moreover, the TGI with SF-268 CNS worked out at 17 µM; in the test with 786-0 renal it was 15.9 µM; with LOX IMVI melanoma, 2.47 µM; in the test on HS 578T breast it was 6.25 µM; with K-562 leukemia it was 3.44 µM; in the test on DU-145 prostate, 21.9 µM. Besides, the TGI was determined as 4.52 µM with IGROV1 ovarian and 8.03 µM in the test on NCI-H460 lung.

With `O=C(N/N=C/c1c(Cl)cccc1Cl)c1ccc(C(F)(F)F)nc1Nc1cccc(C(F)(F)F)c1`, the GI50 with SF-268 CNS was 1.22 µM; in the test with 786-0 renal it was 0.856 µM; in the test with LOX IMVI melanoma it was 0.677 µM; in the test on HS 578T breast, 1.75 µM; with K-562 leukemia it was 0.491 µM; in the test on DU-145 prostate, 1.79 µM. Besides, the GI50 in the test on IGROV1 ovarian was 1.01 µM; in the test with NCI-H460 lung, 0.419 µM. Moreover, the TGI in the test with SF-268 CNS is above 29.3 µM; in the test with 786-0 renal it was 3.25 µM; in the test on LOX IMVI melanoma, 11.5 µM; in the test on HS 578T breast, 18 µM; in the test with DU-145 prostate it was above 32.8 µM; with IGROV1 ovarian it was 13.9 µM. Moreover, the TGI with NCI-H460 lung amounted to 6.13 µM.

Turning to `CC1=CC(=O)C(C(O)(C(F)(F)F)C(F)(F)F)C(C)(C)C1` (stereo unspecified), the TGI in the test on SF-268 CNS, with 786-0 renal, in the test with LOX IMVI melanoma, in the test with HS 578T breast, with K-562 leukemia and in the test with DU-145 prostate was above 10 µM in each case. Moreover, the TGI in the test with IGROV1 ovarian and in the test with NCI-H460 lung was above 10 µM in each case.

For `CCOC(CN(C)C(=S)Nc1cccc2ccccc12)OCC`, the TGI in the test on SF-268 CNS, in the test on 786-0 renal, in the test with LOX IMVI melanoma, with HS 578T breast, in the test on K-562 leukemia and in the test with DU-145 prostate was above 10 µM throughout. The TGI in the test with IGROV1 ovarian and in the test with NCI-H460 lung was above 10 µM in each case.

With `Cc1ncc([N+](=O)[O-])n1CCNS(=O)(=O)CCCn1ncnc1[N+](=O)[O-]`, the TGI in the test on SF-268 CNS, in the test with 786-0 renal, in the test with LOX IMVI melanoma, with HS 578T breast, in the test on K-562 leukemia and with DU-145 prostate was above 100 µM in each case. Moreover, the TGI in the test with IGROV1 ovarian and in the test with NCI-H460 lung was above 100 µM throughout.

Turning to `O=C(Nc1ccc(Cl)c(Cl)c1)Nc1ccccc1O`, the GI50 in the test on SF-268 CNS is 9.59 µM; in the test with 786-0 renal it was 25.2 µM; in the test with LOX IMVI melanoma, 4.58 µM; in the test with HS 578T breast, 6.69 µM; in the test with K-562 leukemia, 3.4 µM; with DU-145 prostate, 9.75 µM. In addition, the results for the GI50 in the test on IGROV1 ovarian and in the test on NCI-H460 lung were 6.48 µM and 4.03 µM, respectively. Also, the TGI with SF-268 CNS worked out at 27.4 µM; in the test with 786-0 renal, 75.1 µM; in the test with LOX IMVI melanoma, 24.2 µM; with HS 578T breast it was 37.5 µM; with K-562 leukemia, 76.8 µM; in the test with DU-145 prostate, 31.1 µM. Moreover, the TGI with IGROV1 ovarian turned out to be 29.3 µM; with NCI-H460 lung, 16.1 µM.

With `CCCCCc1ccc(S(=O)(=O)Nc2cc(-c3csc(NC(C)=O)n3)ccc2N2CCN(C)CC2)cc1`, the GI50 with SF-268 CNS is 5.52 µM; with 786-0 renal, 4.9 µM; in the test with LOX IMVI melanoma, 0.648 µM; with HS 578T breast it was 5.12 µM; with K-562 leukemia, 1.03 µM; with DU-145 prostate, 5.16 µM. The values for the GI50 in the test with IGROV1 ovarian and in the test on NCI-H460 lung were 4.67 µM and 4.77 µM, respectively. Further, the TGI was 11.6 µM with SF-268 CNS; 11.1 µM in the test on 786-0 renal; 1.35 µM in the test with LOX IMVI melanoma; 13.4 µM with HS 578T breast; 3.4 µM in the test on K-562 leukemia; 9.8 µM with DU-145 prostate. The TGI with IGROV1 ovarian stood at 9.46 µM; in the test on NCI-H460 lung, 9.9 µM.

Regarding `O=c1[nH]c(=O)n([C@H]2CCCO2)cc1F`, the GI50 with SF-268 CNS is 3000 µM; with 786-0 renal, 1780 µM; with LOX IMVI melanoma, 1120 µM; in the test with K-562 leukemia, 2770 µM; with DU-145 prostate, 910 µM; with IGROV1 ovarian, 2270 µM. Besides, the GI50 with NCI-H460 lung is 291 µM. In addition, the TGI in the test on SF-268 CNS was above 5000 µM; in the test with 786-0 renal, above 5000 µM; in the test with LOX IMVI melanoma, above 5000 µM; in the test on HS 578T breast it was above 4650 µM; in the test with K-562 leukemia it was above 5000 µM; with DU-145 prostate, above 5000 µM. For the same molecule, the TGI in the test on IGROV1 ovarian was above 5000 µM; in the test on NCI-H460 lung it was 830 µM and > 3640 µM.
